Measured values: patent publication US9670250B2, “Alpha-helical peptidomimetic inhibitors and methods using same” (The Trustees of the University of Pennsylvania, priority 2012, dated 2017)
Residues, ends and D or L forms follow the SMILES beside them.

Legend:
Cathepsin S = Cathepsin S (Homo sapiens, UniProt P25774); experiment: Ki (µM) (Cathepsin S)
From the text: (§1) Table printed on a drawing sheet, FIGURES 2A & 2B
Head of the field: Ki (µM) (Cathepsin S)
(§2) The patent's description of the figure: FIG. 2, comprising FIGS. 2A-2C, illustrate inhibitors of the present invention. FIG. 2A depicts a list of parent and lead cysteine protease inhibitors and their Ki values The bold ‘C’ represents the cysteine linked at the i,i+4 position. […] FIG. 2B is a schematic representation of linked helical peptidomimetics. α,α′-Dibromo-meta-xylene is the i,i+4 linker. FIG. 2C illustrates circular dichroism spectra of unlinked (middle) and linked (right) peptidomimetics (key at left) in 50 mM Tris-HCl buffer (pH 7.5) and 40% trifluoroethanol (TFE). α-Helical stabilization substantially increases helicity in solution.
(§3) First copying reader's note: Bold C residues and underlined sequences mark the linked (stapled) peptides; the meanings of N/A and NT are not printed on the sheet.
Where the first naming reader finds the target: head: Ki (µM) (Cathepsin S)

Cathepsin K = Cathepsin K (Homo sapiens, UniProt P43235); experiment: Ki (µM) (Cathepsin K)
Cathepsin K, sequence (P43235 115-329 limits assumed): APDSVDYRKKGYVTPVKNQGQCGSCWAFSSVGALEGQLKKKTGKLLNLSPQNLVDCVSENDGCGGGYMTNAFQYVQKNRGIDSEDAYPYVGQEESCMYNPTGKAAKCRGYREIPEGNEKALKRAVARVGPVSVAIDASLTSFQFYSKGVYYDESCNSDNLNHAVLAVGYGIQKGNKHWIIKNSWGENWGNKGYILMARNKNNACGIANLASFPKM
From the text: as §1
Head of the field: Ki (µM) (Cathepsin K)
as §2, §3
Where the first naming reader finds the target: head: Ki (µM) (Cathepsin K)

Cathepsin S, sequence (P25774 115-331 limits assumed): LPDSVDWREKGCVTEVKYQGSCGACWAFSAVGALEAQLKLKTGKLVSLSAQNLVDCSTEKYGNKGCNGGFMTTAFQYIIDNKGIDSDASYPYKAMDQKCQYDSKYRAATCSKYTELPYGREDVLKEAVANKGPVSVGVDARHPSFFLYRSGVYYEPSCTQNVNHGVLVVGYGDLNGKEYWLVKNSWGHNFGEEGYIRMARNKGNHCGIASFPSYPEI

Row | Ki (Cathepsin S) | Ki (Cathepsin K) | Compound
1 | > 100 µM | – | CSCC[C@H](NC(=O)[C@H](CC(C)C)NC(=O)[C@H](CO)NC(=O)[C@H](CC(N)=O)NC(=O)[C@H](CCSC)NC(=O)[C@@H](NC(=O)[C@H](CCC(=O)O)NC(=O)[C@H](CCC(=O)O)NC(=O)[C@H](CO)NC(=O)[C@@H](N)[C@@H](C)O)C(C)C)C(=O)N[C@@H](CO)C(=O)N[C@@H](CO)C(=O)O [SEQ ID NO:14, TSEEVMNSLMSS] (H-TSEEVMNSLMSS-OH; N-terminus and C-terminus assumed)
2 | – | > 100 µM | CSCC[C@H](NC(=O)[C@H](CCCCN)NC(=O)[C@H](CCC(N)=O)NC(=O)[C@@H](NC(=O)[C@@H](NC(=O)[C@H](CCC(=O)O)NC(=O)[C@H](CCC(=O)O)NC(=O)[C@@H](N)CO)C(C)C)C(C)C)C(=O)N[C@H](C(=O)NCC(=O)N[C@@H](CC(C)C)C(=O)O)[C@@H](C)O [SEQ ID NO:32, SEEVVQKMTGL] (H-SEEVVQKMTGL-OH; N-terminus and C-terminus assumed)
